Earlier results on one molecule are cited in US5043353A, “A80789 polyether antibiotic” (Eli Lilly and Company, priority 1989, dated 1991).

The subject of this data set is coccidiosis. Particulars: alone; Science, 122: 244 (1955); cited from earlier work.

Take `O=C(Nc1ccc([N+](=O)[O-])cc1)Nc1ccc([N+](=O)[O-])cc1` [4,4'-dinitrocarbanilide]: the anticoccidial activity result is “exhibits anticoccidial activity”.
